US20050008751A1, “Fermented milk product” (Unilever Bestfoods, North America, priority 2001, published 2005)

Test system: ACE
Test: ACE inhibition (IC50) of synthesized peptides
Type: biochemical
Experimental: The ACE inhibition activity was assayed according to the method 15 of Matsui et al. (Matsui, T. et al. (1992) Biosci. Biotech. Biochem. 56: 517-518) with the modifications described below.
For each sample 75 μl 3 mM hippuryl histidine leucine (Hip-His-Leu, Sigma chemicals Co.; the chemical was dissolved in 250 mM Borate containing 200 mM NaCl, pH 8.3); 20 μl 0.1 U/ml ACE (obtained at Sigma) or H2 O, and 25 μl sample or H2O were mixed (see Table 1). The mixtures were incubated at 37° C. and stopped after 30 min by adding 125 μl 0.5 M HCl. Subsequently, 225 μl bicine/NaOH solution (1 M NaOH : 0.25 M bicine (4:6)) was added, followed by […] 0.1 M TNBS (2,4,6-Trinitrobenzenesulfonic acid, Fluka, Switzerland; in 0.1 M Na2HPO4). After incubation for 20 min. at 37° C., 4 ml 4 mM Na2SO3 in 0.2 M NaH2PO4 was added and the absorbance at 416 nm was measured with UV/Vis spectrophotometer (Shimadzu UV-1601 with a CPS controller, Netherlands). The amount of ACE inhibition (ACEI) activity was calculated as a percentage of inhibition compared with the conversion rate of ACE in the absence of an inhibitor: ACEI (%) (((C1-C2)-(S1-S2))/(C1-C2))*100 (1) wherein • C1=Absorbance without ACE inhibitory component (=max. ACE activity) [AU]. • C2=Absorbance without ACE inhibitory component and without ACE (background) [AU]. • S1=Absorbance in the presence of ACE and the ACE inhibitory component [AU]. • S2=Absorbance in the presence of the ACE inhibitory component, but without ACE [AU].

Row | Substance | IC50 [µM]
1 | Leu-Pro [LP] | > 1000
2 | Leu-Pro-Val [LPV] | > 1000
3 | Val-Leu-Pro [VLP] | 120
4 | KVLPVP [Lys-Val-Leu-Pro-Val-Pro] | 5

Results, then the substance that gave them:

Row | IC50 [µM] | Substance
5 | 1000 | KVLPVPQ [Lys-Val-Leu-Pro-Val-Pro-Gln]
6 | 250 | Leu-Pro-Val-Pro (LPVP; printed: Leu-Pro-Val-Pro)
